{"source": "ChEMBL document CHEMBL2074111", "about": "“Functional characterization of the rat mdr1b encoded P-glycoprotein: not all inducing agents are substrates” (Carcinogenesis, 1997)", "biological_target": "ATP-dependent translocase ABCB1 (Rattus norvegicus, UniProt P43245)", "sequence (P43245 whole entry)": "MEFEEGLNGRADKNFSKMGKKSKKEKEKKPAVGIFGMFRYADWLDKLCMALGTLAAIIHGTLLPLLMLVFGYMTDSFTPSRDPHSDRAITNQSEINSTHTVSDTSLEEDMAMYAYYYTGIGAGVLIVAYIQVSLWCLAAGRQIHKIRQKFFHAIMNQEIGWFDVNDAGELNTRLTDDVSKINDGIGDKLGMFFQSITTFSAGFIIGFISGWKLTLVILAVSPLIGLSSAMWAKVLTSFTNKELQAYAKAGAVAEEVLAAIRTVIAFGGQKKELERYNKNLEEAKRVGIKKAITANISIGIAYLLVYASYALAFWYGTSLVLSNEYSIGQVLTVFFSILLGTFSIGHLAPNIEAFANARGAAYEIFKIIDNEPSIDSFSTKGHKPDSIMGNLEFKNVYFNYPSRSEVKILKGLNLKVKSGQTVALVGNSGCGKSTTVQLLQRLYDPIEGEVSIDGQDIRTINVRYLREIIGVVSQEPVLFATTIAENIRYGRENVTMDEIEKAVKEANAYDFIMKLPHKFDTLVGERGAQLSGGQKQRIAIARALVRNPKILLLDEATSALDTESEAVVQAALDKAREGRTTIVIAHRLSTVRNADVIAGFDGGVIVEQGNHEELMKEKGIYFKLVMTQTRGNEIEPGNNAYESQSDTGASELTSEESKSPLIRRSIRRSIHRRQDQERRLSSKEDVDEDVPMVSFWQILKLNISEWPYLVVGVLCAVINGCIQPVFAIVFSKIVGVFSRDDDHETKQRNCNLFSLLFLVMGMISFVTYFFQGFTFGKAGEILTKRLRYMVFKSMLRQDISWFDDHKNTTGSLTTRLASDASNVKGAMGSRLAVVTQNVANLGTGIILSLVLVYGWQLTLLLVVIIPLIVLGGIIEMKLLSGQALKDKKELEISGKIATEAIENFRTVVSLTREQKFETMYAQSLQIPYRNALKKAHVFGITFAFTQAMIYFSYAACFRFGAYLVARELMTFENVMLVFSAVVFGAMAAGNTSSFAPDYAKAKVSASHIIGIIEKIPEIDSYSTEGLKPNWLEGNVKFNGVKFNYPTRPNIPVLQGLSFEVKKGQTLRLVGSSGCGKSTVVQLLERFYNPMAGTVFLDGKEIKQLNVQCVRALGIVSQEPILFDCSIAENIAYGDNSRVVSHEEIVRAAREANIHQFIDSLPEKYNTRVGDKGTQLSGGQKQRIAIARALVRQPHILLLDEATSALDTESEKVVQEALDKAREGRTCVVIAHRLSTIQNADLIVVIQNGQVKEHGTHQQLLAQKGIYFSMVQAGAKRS", "experiment": "TP_TRANSPORTER: intracellular accumulation in mdr1b-expressing NIH3T3 cells", "type": "functional, cell-based", "conditions": "mouse"}
{"smiles": "COC(=O)c1ccccc1-c1c2ccc(=N)cc-2oc2cc(N)ccc12.Cl", "note": "[RHODAMINE123]", "values": [{"measurement": "Activity", "result": "substrate [+]"}]}
